# Earlier results, collected in patent US8071133B2, “Oral dosage forms of water insoluble drugs and methods of making the same” (Stiefel Laboratories, Inc., priority 2001, dated 2011).
compound,measurement,value
CC(C)(C)NC(=O)[C@@H]1C[C@@H]2CCCC[C@@H]2CN1C[C@@H](O)[C@H](Cc1ccccc1)NC(=O)[C@H](CC(N)=O)NC(=O)c1ccc2ccccc2n1 [Saquinavir],solubility in water,approximately 10 microgram per mL
